{"source": "patent US20210084902A1", "about": "“FUNGICIDAL MIXTURE COMPRISING SUBSTITUTED 3-PHENYL-5-(TRIFLUOROMETHYL)-1,2,4-OXADIAZOLES” (BASF SE, priority 2017, published 2021)", "assay_type_in_all_cases": "cell-based", "key": {"Pyricularia oryzae": {"test_system": "Pyricularia oryzae", "assay": "microbe, parasite or virus in culture", "settings": "Pyricularia oryzae, 168 h, read-out: Observed efficacy"}, "Leptosphaeria nodorum": {"test_system": "Leptosphaeria nodorum", "assay": "Fungicidal activity against Leptosphaeria nodorum, microtiter plate (MTP) test", "settings": "Parastagonospora nodorum, 168 h, read-out: Observed efficacy"}, "Septoria tritici": {"test_system": "Septoria tritici", "assay": "Fungicidal activity against Septoria tritici, micro titer plate (MTP) test", "settings": "Zymoseptoria tritici, 168 h; Table V.4; component B alone, 0.000063 ppm; read-out: Observed efficacy"}, "[1]": {"test_system": "Colletotrichum orbiculare", "assay": "Fungicidal activity against Colletotrichum orbiculare in the microtiterplate test", "settings": "Colletotrichum orbiculare, read-out: Observed efficacy"}, "Botrytis cinerea": {"test_system": "Botrytis cinerea", "assay": "Fungicidal activity against Botrytis cinerea, micro titer plate (MTP) test", "settings": "Botrytis cinerea, 168 h, component B alone, read-out: Observed efficacy"}}, "data": [{"smiles": "COC(=O)N(OC)c1ccccc1COc1ccn(-c2ccc(Cl)cc2)n1", "note": "[Pyraclostrobin, pyraclostrobin]", "values": [{"measurement": "inhibition of growth at 0.001 ppm", "setting": "Pyricularia oryzae", "result": 46, "unit": "%"}, {"measurement": "inhibition of growth at […]", "setting": "Leptosphaeria nodorum; 0.00025 ppm", "result": 22, "unit": "%"}, {"measurement": "inhibition of growth at 0.004 ppm", "setting": "Leptosphaeria nodorum; 0.004 ppm", "result": 59, "unit": "%"}, {"measurement": "inhibition of growth at 6.3e-05 ppm", "setting": "Septoria tritici", "result": 21, "unit": "%"}, {"measurement": "inhibition of growth at 0.001 ppm", "setting": "[1]; 0.001 ppm", "result": 32, "unit": "%"}, {"measurement": "inhibition of growth at […]", "setting": "[1]; 0.016 ppm", "result": 60, "unit": "%"}, {"measurement": "inhibition of growth at 0.004 ppm", "setting": "Botrytis cinerea; 0.004 ppm", "result": 0, "unit": "%"}, {"measurement": "inhibition of growth at […]", "setting": "Botrytis cinerea; 0.016 ppm", "result": 14, "unit": "%"}]}]}
